Experimental data from US20100144688A1, “23-Substituted Derivatives of Lupane-type Pentacyclic Triterpenoids” (ADVANCED LIFE SCIENCES, INC., priority 2008, published 2010).

Experiments:
[1] = system: murine melanoma B16 cells; details: cited from earlier work
SK-MEL-2 (melanoma) = assay: MTS cell viability assay, SK-MEL-2; format: cell-based; details: Homo sapiens, SK-MEL-2, 72 h incubation
Procedure: (§1) Cells were plated, the evening before treatment, for each treatment on 96-well plates (1×10^4 cells/well) in 100 μL volume per well. Analog solutions were prepared by diluting each test compound in DMSO (10 mM) with the appropriate cell growth media for each individual cell line, or in “Universal Media” if several cell lines were to be assayed in parallel, immediately prior to cell treatment. Universal Media consisted of 5 mL sodium pyruvate (100× liquid stock, MediaTech), 5 mL glucose (100×, 45% liquid stock, MediaTech), 5 mL Penicillin/Streptomycin (100× liquid stock, MediaTech), 10 mL sodium bicarbonate (50× liquid stock, MediaTech), 25 mL Fetal Calf Serum, 1.25 mL insulin (4 mg/mL, Gibco) and 449 mL RPMI media with 2 mM L-glutamine for a total volume of 500 mL.
(§2) Cells were treated by aspirating plating media from each well and adding 80 μL of betulinic acid (control) or each analog solution in serial dilutions to the adherent cells. All treatments were performed in triplicate. Growth media (80 μL) was added to 3 blank wells (no cells) to measure background from the growth media. Growth media alone (no DMSO or test compound) was added to 3 wells containing cells to measure the baseline MTS activity. Vehicle (DMSO) control in serial dilutions, added to cells, was also included to monitor basal toxicity from DMSO. Cells were incubated at 37° C. for 72 h, or 120 h for the OVCAR cell lines. MTS reagent (per 96-well plate) were prepared by combining 2 mL of MTS working solution (Cell Titer Aqueous Non-Radioactive Cell Proliferation Assay, Promega, cat#G1112), 100 μL of 0.92 mg/mL phenazine methosulfate/Dulbecco's PBS and 2.1 mL growth media. MTS reagent (40 μL) was added to each well and incubated at 37° C. for 1.5 to 4 h. Plates were gently shaken by hand until solution in each well appeared homogenous. Absorbances at 490 nm were measured on a Wallac Victor II plate reader at multiple time points following the addition of MTS reagent for each plate. Triplicate absorbance (490 nm) measurements were averaged following background (no cell) subtraction for each drug concentration. Percent Cell Viability was calculated for each drug concentration using the following equation:
(§3) {[Absorbance(analog treated)]/[Absorbance(DMSO treated)]}×100%
(§4) Percent viability (y-axis) was plotted against drug concentration (x-axis) and the resulting graph was used to determine the 50% inhibitory concentration (IC50) for each drug.
(§5) Cytotoxicity dose response for the synthesized triterpenoid derivatives in SK-MEL-2 (melanoma), A-375 (melanoma), Daoy (glioblastoma), LN-229 (glioblastoma), OVCAR-3 (ovarian carcinoma), HT-29 (colon carcinoma), MCF-7 (breast carcinoma) cell lines using the standard MTS assay (described above) is summarized in Table 1.

Daoy (glioblastoma) = assay: MTS cell viability assay, Daoy; format: cell-based; details: Homo sapiens, Daoy, 72 h incubation
Procedure: as §1, §2, §3, §4, §5

[2] = system: human colon carcinoma cell lines (Caco-2); details: Caco-2, at approximately 60 minutes; cited from earlier work
[3] = system: human leukemia HL-60 cells; details: by decrease in telomerase activity and down-regulation of bcl-2; cited from earlier work
HT-29 (colon carcinoma) = assay: MTS cell viability assay, HT-29; format: cell-based; details: Homo sapiens, HT-29, 72 h incubation
Procedure: as §1, §2, §3, §4, §5

A-375 (melanoma) = assay: MTS cell viability assay, A-375; format: cell-based; details: Homo sapiens, A-375, 72 h incubation
Procedure: as §1, §2, §3, §4, §5

MCF-7 (breast carcinoma) = assay: MTS cell viability assay, MCF-7; format: cell-based; details: Homo sapiens, MCF7, 72 h incubation
Procedure: as §1, §2, §3, §4, §5

LN-229 (glioblastoma) = assay: MTS cell viability assay, LN-229; format: cell-based; details: Homo sapiens, LN-229, 72 h incubation
Procedure: as §1, §2, §3, §4, §5

Structure (SMILES) | IC50 (SK-MEL-2 (melanoma)) | IC50 (Daoy (glioblastoma)) | also measured
C=C(C)[C@@H]1CC[C@]2(C(=O)O)CC[C@]3(C)[C@H](CC[C@@H]4[C@@]5(C)CC[C@H](O)C(C)(CO)[C@@H]5CC[C@]43C)[C@@H]12 (some centres unmarked) [Compound 1, 23-Hydroxybetulinic acid] | > 75 µM | > 75 µM | growth arrest and apoptotic cell death, B16 ([1]; by increase in reactive oxidative species and dissipation of mitochondrial membrane potential): induces growth arrest and apoptotic cell death; potency against murine melanoma B16 cells ([1]; compared with betulinic acid (2)): increased potency; intracellular concentration (cellular uptake) [2]: 906.7 μM/mg protein; growth arrest and apoptotic cell death, HL-60 [3]: induces growth arrest and apoptotic cell death
C=C(C)[C@@H]1CC[C@]2(C(=O)O)CC[C@]3(C)[C@H](CC[C@@H]4[C@@]5(C)CCC(=O)C(C)(CO)[C@@H]5CC[C@]43C)[C@@H]12 (some centres unmarked) [Compound 4, 23-hydroxybetulonic acid, reference compound] | 33 µM | 59 µM | 
C=C(C)[C@@H]1CC[C@]2(CO)CC[C@]3(C)[C@H](CC[C@@H]4[C@@]5(C)CC[C@H](O)C(C)(CO)[C@@H]5CC[C@]43C)[C@@H]12 (some centres unmarked) [Compound 5, 23-hydroxybetulin, reference compound] | > 75 µM | 65 µM | 
C=C(C)[C@@H]1CC[C@]2(CO)CC[C@]3(C)[C@H](CC[C@@H]4[C@@]5(C)CCC(=NOC(C)=O)C(C)(COC(C)=O)[C@@H]5CC[C@]43C)[C@@H]12 (some centres unmarked) [Compound 15b] | 35 µM | 34 µM | 
C=C(C)[C@@H]1CC[C@]2(COC(C)=O)CC[C@]3(C)[C@H](CC[C@@H]4[C@@]5(C)CCC(=NO)C(C)(CO)[C@@H]5CC[C@]43C)[C@@H]12 (some centres unmarked) [Compound 17c] | 16 µM | 16 µM | 
C=C(C)[C@@H]1CC[C@]2(CO)CC[C@]3(C)[C@H](CC[C@@H]4[C@@]5(C)CCC(=O)C(C)(CO)[C@@H]5CC[C@]43C)[C@@H]12 (some centres unmarked) [Compound 18b] | > 75 µM | 34 µM | 
C=C(C)[C@@H]1CC[C@]2(COC(C)=O)CC[C@]3(C)[C@H](CC[C@@H]4[C@@]5(C)CCC(=O)C(C)(CO)[C@@H]5CC[C@]43C)[C@@H]12 (some centres unmarked) [Compound 18c] | 29 µM | 16 µM | 
C=C(C)[C@@H]1CC[C@]2(C(=O)O)CC[C@]3(C)[C@H](CC[C@@H]4[C@@]5(C)CCC(N)C(C)(CO)[C@@H]5CC[C@]43C)[C@@H]12 (some centres unmarked) [Compound 22] | 36 µM | 38 µM | 
C=C(C)[C@@H]1CC[C@]2(CO)CC[C@]3(C)[C@H](CC[C@@H]4[C@@]5(C)CCC(N)C(C)(CO)[C@@H]5CC[C@]43C)[C@@H]12 (some centres unmarked) [Compound 23] | 2 µM | 2 µM | IC50 (HT-29 (colon carcinoma)): 6 µM; IC50 (A-375 (melanoma)): 5 µM; IC50 (MCF-7 (breast carcinoma)): 5 µM; IC50 (LN-229 (glioblastoma)): 15 µM
C=C(C)[C@@H]1CC[C@]2(COC(C)=O)CC[C@]3(C)[C@H](CC[C@@H]4[C@@]5(C)CCC(NC(C)=O)C(C)(COC(C)=O)[C@@H]5CC[C@]43C)[C@@H]12 (some centres unmarked) [Compound 25] | 36 µM | 38 µM | 
C=C(C)[C@@H]1CC[C@]2(CO)CC[C@]3(C)[C@H](CC[C@@H]4[C@@]5(C)CCC(NC(C)=O)C(C)(CO)[C@@H]5CC[C@]43C)[C@@H]12 (some centres unmarked) [Compound 27] | 64 µM | > 75 µM | 
C=C(C)[C@@H]1CC[C@]2(C=NO)CC[C@]3(C)[C@H](CC[C@@H]4[C@@]5(C)CCC(=NOC(C)=O)C(C)(COC(C)=O)[C@@H]5CC[C@]43C)[C@@H]12 (some centres unmarked) [Compound 29] | 16 µM | 14 µM | 
C=C(C)[C@@H]1CC[C@]2(C=NO)CC[C@]3(C)[C@H](CC[C@@H]4[C@@]5(C)CCC(=NO)C(C)(CO)[C@@H]5CC[C@]43C)[C@@H]12 (some centres unmarked) [Compound 30] | 3 µM | 5 µM | IC50 (HT-29 (colon carcinoma)): 13 µM; IC50 (A-375 (melanoma)): 4 µM; IC50 (MCF-7 (breast carcinoma)): < 2 µM; IC50 (LN-229 (glioblastoma)): 16 µM
C=C(C)[C@@H]1CC[C@]2(C#N)CC[C@]3(C)[C@H](CC[C@@H]4[C@@]5(C)CCC(=NOC(C)=O)C(C)(COC(C)=O)[C@@H]5CC[C@]43C)[C@@H]12 (some centres unmarked) [Compound 35] | 24 µM | 31 µM | 
C=C(C)[C@@H]1CC[C@]2(C#N)CC[C@]3(C)[C@H](CC[C@@H]4[C@@]5(C)CCC(N)C(C)(CO)[C@@H]5CC[C@]43C)[C@@H]12 (some centres unmarked) [Compound 37] | 14 µM | 17 µM | 
C=C(C)[C@@H]1CC[C@]2(COC(C)=O)CC[C@]3(C)[C@H](CC[C@@H]4[C@@]5(C)CCC(=O)C(C)(COC(C)=O)[C@@H]5CC[C@]43C)[C@@H]12 (some centres unmarked) [Compound 38] | 18 µM | 31 µM | 
C=C(CO)[C@@H]1CC[C@]2(C#N)CC[C@]3(C)[C@H](CC[C@@H]4[C@@]5(C)CCC(=NOC(C)=O)C(C)(COC(C)=O)[C@@H]5CC[C@]43C)[C@@H]12 (some centres unmarked) [Compound 39d] | 14 µM | 33 µM | melting point: 141 to 143 °C
C=C(CO)[C@@H]1CC[C@]2(COC(C)=O)CC[C@]3(C)[C@H](CC[C@@H]4[C@@]5(C)CCC(=O)C(C)(COC(C)=O)[C@@H]5CC[C@]43C)[C@@H]12 (some centres unmarked) [Compound 40c] | 33 µM | 56 µM | 
C=C(CO)[C@@H]1CC[C@]2(C(=O)O)CC[C@]3(C)[C@H](CC[C@@H]4[C@@]5(C)CC[C@H](O)C(C)(CO)[C@@H]5CC[C@]43C)[C@@H]12 (some centres unmarked) [Compound 43a] | > 75 µM | > 75 µM | 
C=C(CO)[C@@H]1CC[C@]2(COC(C)=O)CC[C@]3(C)[C@H](CC[C@@H]4[C@@]5(C)CC[C@H](O)C(C)(COC(C)=O)[C@@H]5CC[C@]43C)[C@@H]12 (some centres unmarked) [Compound 43e] | 16 µM | 16 µM | 
C=C(CO)[C@@H]1CC[C@]2(C(=O)O)CC[C@]3(C)[C@H](CC[C@@H]4[C@@]5(C)CCC(N)C(C)(CO)[C@@H]5CC[C@]43C)[C@@H]12 (some centres unmarked) [Compound 44a] | > 75 µM | > 75 µM | 
C=C(CO)[C@@H]1CC[C@]2(CO)CC[C@]3(C)[C@H](CC[C@@H]4[C@@]5(C)CCC(N)C(C)(CO)[C@@H]5CC[C@]43C)[C@@H]12 (some centres unmarked) [Compound 44b] | 17 µM | 18 µM | 
C=C(CO)[C@@H]1CC[C@]2(C#N)CC[C@]3(C)[C@H](CC[C@@H]4[C@@]5(C)CCC(N)C(C)(CO)[C@@H]5CC[C@]43C)[C@@H]12 (some centres unmarked) [Compound 44d] | 32 µM | 73 µM | 
C=C(C=O)[C@@H]1CC[C@]2(COC(C)=O)CC[C@]3(C)[C@H](CC[C@@H]4[C@@]5(C)CCC(=O)C(C)(COC(C)=O)[C@@H]5CC[C@]43C)[C@@H]12 (some centres unmarked) [Compound 49a] | 5 µM | 9 µM | IC50 (HT-29 (colon carcinoma)): 5 µM; IC50 (A-375 (melanoma)): 5 µM; IC50 (MCF-7 (breast carcinoma)): 4 µM; IC50 (LN-229 (glioblastoma)): 15 µM
